# Data from paper PMC12390684 (Viruses, 2025).
# Biological target: IN-GCN2 interaction (6xHis-IN / GST-GCN2) (UniProt P04585+Q9P2K8)
# Test: biochemical
# Type: binding, HIV-1 IN; human GCN2
# Conditions: screen; for IN-GCN2 interaction (%): single dose 100 µM, single replicate, residual AlphaLISA signal normalized to DMSO control
# IN-GCN2 interaction (6xHis-IN / GST-GCN2), sequence (Q9P2K8 192-1024, other chains not shown): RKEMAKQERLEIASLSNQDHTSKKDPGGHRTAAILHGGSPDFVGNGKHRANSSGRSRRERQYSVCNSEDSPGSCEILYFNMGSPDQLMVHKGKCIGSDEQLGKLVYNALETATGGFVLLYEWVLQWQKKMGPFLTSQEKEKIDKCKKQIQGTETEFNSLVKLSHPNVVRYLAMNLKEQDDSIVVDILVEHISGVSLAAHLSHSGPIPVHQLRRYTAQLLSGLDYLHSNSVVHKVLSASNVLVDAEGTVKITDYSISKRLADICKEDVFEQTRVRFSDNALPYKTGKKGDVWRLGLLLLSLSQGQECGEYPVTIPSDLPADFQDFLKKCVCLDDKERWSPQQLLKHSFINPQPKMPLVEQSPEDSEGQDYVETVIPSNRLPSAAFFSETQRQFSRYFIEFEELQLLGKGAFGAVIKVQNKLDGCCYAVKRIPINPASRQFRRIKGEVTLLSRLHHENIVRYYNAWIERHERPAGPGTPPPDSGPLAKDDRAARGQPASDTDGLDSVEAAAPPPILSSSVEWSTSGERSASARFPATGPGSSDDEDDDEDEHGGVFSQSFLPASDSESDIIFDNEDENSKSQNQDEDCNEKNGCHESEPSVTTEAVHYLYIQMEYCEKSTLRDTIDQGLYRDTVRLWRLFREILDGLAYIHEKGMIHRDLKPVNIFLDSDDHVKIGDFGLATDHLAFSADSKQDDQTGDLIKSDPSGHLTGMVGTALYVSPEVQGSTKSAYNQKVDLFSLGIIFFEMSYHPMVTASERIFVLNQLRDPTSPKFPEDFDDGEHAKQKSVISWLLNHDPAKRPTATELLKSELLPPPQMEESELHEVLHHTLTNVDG
Compound,IN-GCN2 interaction (%),further results
O=[N+]([O-])[O-].c1ccc2c(c1)[nH]c1c2cc[n+]2cc3c(cc12)CCCC3 [NSC21728],107.16%,–
C=C1C(=O)O[C@H]2C[C@@]3(C)O[C@@H]3CC/C(C)=C/[C@@H](OC(C)=O)[C@H]12 [NSC22070],135.82%,–
O=c1oc2cc(O)ccc2c2oc3cc(O)ccc3c12 [NSC22842],123.61%,–
CCC(C)c1cnc(CC(C)C)c(=O)n1O (centres unmarked) [NSC22939],88.97%,–
O=c1ccn([C@H]2C[C@H](O)[C@@H](CO)O2)c(=O)[nH]1 [NSC23615],82.13%,–
COC1=CC(=O)OC(CCc2ccc3c(c2)OCO3)C1 (centres unmarked) [NSC23878],70.38%,–
COc1cc([C@@H]2c3cc4c(c(O)c3C[C@H]3COC(=O)[C@@H]32)OCO4)cc(OC)c1OC [NSC24819],89.45%,–
C/C(=C\CC1=C(O)c2ccccc2C(=O)C1=O)CO [NSC24872],132.67%,–
O=C1C[C@@H]2OCC=C3C[N+]4([O-])CC[C@]56c7ccccc7N1[C@H]5[C@H]2[C@H]3C[C@@H]64 (some centres unmarked) [NSC24951],106.44%,–
COC1[C@H](O)[C@@H](O)C(O)[C@H](O)[C@H]1O (some centres unmarked) [NSC26254],90.47%,–
C=C(C)[C@H]1Cc2c(ccc3c2O[C@@H]2COc4cc(OC)c(OC)cc4[C@@H]2C3=O)O1 [NSC26258],55.12%,–
O=P1(N(CCCl)CCCl)NCCCO1 (centres unmarked) [NSC26271],117.66%,–
CC1(C)CCC2=C(O1)c1ccccc1C(=O)C2=O [NSC26326],107.59%,–
CC1(C)CCC2=C(O1)C(=O)c1ccccc1C2=O [NSC26327],99.02%,–
NC(=O)NCCC[C@H](N)C(=O)O [NSC27425],90.90%,–
O=C([O-])c1nc(=O)[nH]c(=O)[nH]1.[K+] [NSC28841],85.56%,–
COC(=O)C1C2CC3c4[nH]c5cc(OC)ccc5c4CCN3CC2CC(OC(=O)CCc2cc(OC)c(OC)c(OC)c2)C1OC (centres unmarked) [NSC29854],63.08%,–
O=C(O)/C(O)=C(/O)C(=O)O [NSC30238],100.21%,–
COc1c(O)cc2oc3cc(O)c(CC=C(C)C)c(O)c3c(=O)c2c1CC=C(C)C [NSC30552],60.59%,–
C/C=C(/C)C(=O)O[C@H]1CCN2CC=C(COC(=O)[C@@](O)([C@H](C)OC)C(C)(C)O)[C@H]12 [NSC30625],106.60%,–
COc1ccc([C@@H]2CC(=O)c3c(O)cc(O[C@@H]4O[C@H](CO[C@@H]5O[C@@H](C)[C@H](O)[C@@H](O)[C@H]5O)[C@@H](O)[C@H](O)[C@H]4O)cc3O2)cc1O [NSC31048],142.54%,–
O=C1c2ccccc2C(=O)c2c1cc(O)c(O)c2O [NSC31754],87.55%,–
CCCCCc1cc(O)cc2c1Oc1cc(O)cc(C(=O)CCCC)c1C(=O)O2 [NSC31867],101.08%,–
CN1CCc2cc3c(cc2[C@H]1[C@@H]1OC(=O)c2c1ccc1c2OCO1)OCO3 [NSC32192],122.62%,–

Compound,IN-GCN2 interaction (%),further results
CC(=O)O[C@@]1(C)C[C@@H]([C@H](O)CC2CC(=O)NC(=O)C2)C(=O)[C@@H](C)C1 [NSC32743],79.33%,–
CC[C@H]1CN2CCc3cc(OC)c(OC)cc3[C@@H]2C[C@@H]1C[C@H]1NCCc2cc(O)c(OC)cc21 [NSC32944],81.67%,–
COc1ccc2c(c1O)-c1c(OC)c(OC)cc3c1[C@H](C2)N(C)CC3 [NSC32979],119.47%,–
COc1cc(/C=C/C(=O)CC(=O)/C=C/c2ccc(O)c(OC)c2)ccc1O [NSC32982],15.01%,–
COc1cc2c(cc1OC)C(=O)Cc1ccc3c(c1CN(C)CC2)OCO3 [NSC32984],91.01%,–
COc1cc2c(c(OC)c1OC)-c1ccc(OC)c(=O)cc1[C@@H](NC(=O)c1ccccc1)CC2 [NSC33410],67.25%,–
COC(=O)CC[C@@H](C)[C@H]1CC[C@@]2(C)[C@@H]3C(=O)C[C@H]4C(C)(C)[C@@H](OC(C)=O)CC[C@]4(C)[C@H]3C(=O)C[C@]12C [NSC34202],97.47%,–
[O-][N+]12CCCCC1CCCC2CO (centres unmarked) [NSC34552],80.42%,–
COc1c2c(c3c(c1OC)c(=O)c1ccccc1n3C)OCO2 [NSC34758],105.30%,–
COc1ccc(CC2=NCCc3cc(OC)c(OC)cc32)cc1OC.O=C(O)C(=O)O [NSC35550],110.36%,–
CC1CCC2C(C)C3C(CC4C5CC=C6CC(OC7OC(CO)C(O)C(OC8OC(CO)C(O)C(O)C8O)C7OC7OC(C)C(O)C(O)C7O)CCC6(C)C5CCC43C)N2C1.Cl (centres unmarked) [NSC35611],109.39%,–
O=c1c(O)cccc2cc(O)c(O)c(O)c12 [NSC35676],61.12%,–
COc1c2c(cc(O)c1C(C)=O)OC(C)(C)C=C2 [NSC36294],109.95%,–
COc1ccc2c(c1OC)CN1CCc3cc4c(cc3C1C2)OCO4 (centres unmarked) [NSC36351],108.61%,"effect on IN-GCN2 interaction in the screen, in words (100 µM, inactive = within 10% of the DMSO control): inactive"
O=C1c2cc(O)c(O)cc2OC(c2ccc(O)c(O)c2)C1O (centres unmarked) [NSC36398],108.22%,–
COc1cc([C@@H]2c3cc4c(cc3[C@H](O)[C@H]3COC(=O)[C@@H]23)OCO4)cc(OC)c1OC [NSC36407],109.04%,–
C=C1C(=O)OC2CC1C(OC(C)=O)C/C(C)=C/CC/C(C)=C\CCC2(C)O (centres unmarked) [NSC36437],–,IN-GCN2 interaction (%) (listed as 36437): 73.91%
CC1(C)O[C@H]2CC(=O)OC[C@]23[C@H]2CC[C@@]4(C)[C@H](c5ccoc5)OC(=O)[C@H]5O[C@]54[C@]2(C)C(=O)C[C@@H]13 [NSC36508],112.07%,–
C[C@@H]1C[C@H]2OC(=O)[C@@]3(C)CCC[C@@](C)([C@@H]23)[C@@]1(O)CCc1ccoc1 [NSC36693],92.00%,–
CCOC(=O)CCCCCCCCCCCCC1C=CCC1 (centres unmarked) [NSC38010],104.59%,–
CO[C@@H]1[C@H](O)C[C@@H](O[C@H]2[C@@H](C)O[C@@H](Oc3cc(O)c4c(O)c5c(cc4c3)C[C@@H]([C@H](OC)C(=O)[C@@H](O)[C@@H](C)O)[C@H](O[C@H]3C[C@@H](O[C@H]4C[C@@H](O[C@H]6C[C@](C)(O)[C@@H](OC(=O)C(C)C)[C@H](C)O6)[C@H](O)[C@@H](C)O4)[C@H](O)[C@@H](C)O3)C5=O)C[C@H]2OC(C)=O)O[C@@H]1C [NSC38270],113.18%,–
CC1=C2[C@H]3OC(=O)[C@@H](C)[C@@H]3CC[C@@]2(C)C=C/C1=N\O [NSC42038],112.40%,–
CC(C)c1ccc(O)c(=O)cc1 [NSC43338],–,IN-GCN2 interaction (%) (listed as 43338): 100.42%
CC(C)=CCc1ccc(O)c(=O)cc1C(C)C [NSC43339],101.87%,–

Compound,IN-GCN2 interaction (%),further results
CN1[C@@H]2CC[C@H]1CC(O)C2 (some centres unmarked) [NSC43871],99.50%,–
O=P(O)(O)OC1OC(CO)C(O)C(O)C1O (centres unmarked) [NSC44138],105.48%,–
O=C1C(O)=C(c2ccccc2)C(=O)C(O)=C1c1ccccc1 [NSC44175],117.13%,–
COC1=C(N)C(=O)c2nc(-c3nc(C(=O)O)c(C)c(-c4ccc(OC)c(OC)c4O)c3N)ccc2C1=O [NSC45383],84.72%,–
COC(=O)c1nc(-c2ccc3c(n2)C(=O)C(N)=C(OC)C3=O)c(N)c(-c2ccc(OC)c(OC)c2O)c1C [NSC45384],82.84%,–
COc1c2occc2cc2ccc(=O)oc12 [NSC45923],121.17%,–
CC(C)C[C@H](N)C(=O)O [NSC46709],84.16%,–
C=C1C(=O)OC2CC1C(OC(C)=O)C/C(C)=C/CC/C(C)=C\CCC2(C)O (centres unmarked) [NSC46728],–,IN-GCN2 interaction (%) (listed as 46728): 93.27%
COc1cc2c(cc1OC)C(O)C(O)(CO)C(C(=O)O)C2c1cc(OC)c(OC)c(OC)c1 (centres unmarked) [NSC50131],78.06%,–
COc1cc2c(cc1OC)C(c1cc(OC)c(OC)c(OC)c1)C1(O)C(=O)OCC1(O)C2 (centres unmarked) [NSC50132],86.33%,–
O=C1CC(c2ccccc2)Oc2ccccc21 (centres unmarked) [NSC50393],103.95%,–
CO[C@@H]1[C@@H](O[C@@H]2O[C@H](C)[C@@H](O[C@H]3C[C@@](C)(O)[C@@H](OC(=O)CC(C)C)[C@H](C)O3)[C@H](N(C)C)[C@H]2O)[C@@H](CC=O)C[C@@H](C)C(=O)/C=C/[C@@H]2O[C@H]2C[C@@H](C)OC(=O)C[C@H]1OC(C)=O [NSC51001],99.20%,–
COc1cc(O)c(C(=O)/C=C/c2ccccc2)c(OC)c1 [NSC51351],51.53%,–
CO[C@@]12[C@H](COC(N)=O)C3=C(C(=O)C(C)=C(N)C3=O)N1C[C@H]1[C@@H]2N1C (some centres unmarked) [NSC56410],73.33%,–
CCN1C[C@]2(COC)[C@H](O)C[C@H](OC)[C@@]34[C@@H]5C[C@@]6(O)[C@H](OC(=O)c7ccccc7)[C@@H]5[C@@](OC(C)=O)([C@@H]([C@H](OC)[C@H]23)[C@@H]14)[C@@H](O)[C@@H]6OC [NSC56464],148.00%,–
C1CCC(NC2CCCCC2)CC1.COC1C(OC(=O)/C=C/C=C/C=C/C=C/C(=O)O)CCC2(CO2)C1C1(C)OC1CC=C(C)C (centres unmarked) [NSC58368],95.05%,–
O=C(O)C1(O)C[C@@H](O)C(O)[C@H](O)C1 (some centres unmarked) [NSC59258],–,IN-GCN2 interaction (%) (listed as 59258): 71.78%
CSC[S@@+]([O-])CC(CO)NC(=O)/C=C/c1c(C)[nH]c(=O)[nH]c1=O (some centres unmarked) [NSC59729],102.04%,–
COc1cc2c3c(c4ccc(OC)c(OC)c4c2cc1OC)CN1CCC[C@@H]1C3 [NSC60387],110.26%,–
C[N+]1(C)C2CC(OC(=O)C(CO)c3ccccc3)CC1C1OC12 (centres unmarked) [NSC61809],93.88%,–
COc1ccc(-c2c(C)c(C(=O)O)nc(-c3ccc4c(O)c(OC)c5c(c4n3)=NC(C)(C)N=5)c2N)c(O)c1OC [NSC62709],123.77%,–
CNC[C@H](O)c1ccc(O)c(O)c1 [NSC62786],108.20%,–
